Reference: ChEMBL document CHEMBL5725308, “Inhibitors of the fibroblast growth factor receptor” (2017)

molecular target: Fibroblast growth factor receptor 4 (Homo sapiens, UniProt P22455); test: The reaction was stopped by the addition of 70 ul of Stop buffer (100 mM HEPES pH 7.5, 0.015% Brij 35, 35 mM EDTA and 0.2% of Coating Reagent 3 (Caliper Lifesciences)). The plate was then read on a Caliper LabChip EZ Reader II (protocol settings: −1.9 psi, upstream voltage −700, downstream Voltage -3000, post sample sip 35S).; format: biochemical
Sequence (P22455 whole entry): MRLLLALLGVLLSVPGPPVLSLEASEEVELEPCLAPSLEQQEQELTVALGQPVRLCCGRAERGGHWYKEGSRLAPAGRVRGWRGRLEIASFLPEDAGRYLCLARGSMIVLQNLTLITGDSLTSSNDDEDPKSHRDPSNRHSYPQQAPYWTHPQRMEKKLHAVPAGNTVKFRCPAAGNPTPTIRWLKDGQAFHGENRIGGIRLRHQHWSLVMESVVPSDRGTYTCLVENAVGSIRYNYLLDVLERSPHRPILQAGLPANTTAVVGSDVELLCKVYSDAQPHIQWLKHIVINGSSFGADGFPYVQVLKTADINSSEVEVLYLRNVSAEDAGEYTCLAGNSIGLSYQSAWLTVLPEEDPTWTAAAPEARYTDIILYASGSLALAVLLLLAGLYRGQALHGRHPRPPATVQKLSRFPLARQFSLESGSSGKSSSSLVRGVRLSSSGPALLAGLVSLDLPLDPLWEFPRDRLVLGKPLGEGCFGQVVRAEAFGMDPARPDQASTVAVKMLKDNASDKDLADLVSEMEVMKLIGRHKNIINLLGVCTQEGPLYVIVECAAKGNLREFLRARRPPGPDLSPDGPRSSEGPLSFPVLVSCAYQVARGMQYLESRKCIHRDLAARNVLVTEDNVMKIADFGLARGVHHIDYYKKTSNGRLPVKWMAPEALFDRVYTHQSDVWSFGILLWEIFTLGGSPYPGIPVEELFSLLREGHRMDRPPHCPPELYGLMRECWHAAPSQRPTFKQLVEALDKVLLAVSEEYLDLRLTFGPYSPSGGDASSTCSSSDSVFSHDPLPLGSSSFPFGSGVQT

IC50 | Compound
< 10 nM | C=CC(=O)N1CCc2ccc(-c3ncc4cc(-c5c(Cl)c(OC)cc(OC)c5Cl)c(=O)n(CC)c4n3)cc21
> 1000 nM | C=CC(=O)Nc1ccccc1-c1ncc2cc(-c3c(Cl)c(OC)cc(OC)c3Cl)cc(OC)c2n1
< 10 nM | C=CC(=O)N1CC(C)(C)Oc2ccc(-c3cc4c(cn3)cc(-c3c(Cl)c(OC)cc(OC)c3Cl)c(=O)n4CC)cc21
< 10 nM | C=CC(=O)Nc1ccccc1-c1cc2c(cn1)cc(-c1c(Cl)c(OC)cc(OC)c1Cl)c(=O)n2C1CCCC1
< 10 nM | C=CC(=O)Nc1cccc(-c2cc3c(cn2)cc(-c2c(Cl)c(OC)cc(OC)c2Cl)c(=O)n3C2CCCC2)c1
